Assay results reported in patent US11685747B2, “Compounds that inhibit MCL-1 protein” (AMGEN INC., priority 2014, dated 2023).

Tests used:
[1] = target: T1, Mcl-1/Bak protein-protein interactions (Homo sapiens, UniProt Q07820); assay: Cell-based split luciferase complementation assay; conditions: HEK 293 M cells, serum-free, 4 h
T1 construct: expressed in transfected cells; host or cells: HEK 293 M cells, transient transfection

recombinant human Mcl-1 = target: T2, recombinant human Mcl-1 (Homo sapiens, UniProt Q07820); assay: Cell free Mcl-1:Bim affinity assay (Mcl-1 HTRF, TR-FRET); assay type: binding; conditions: inhibition of Mcl-1/Bim interaction
T2 construct: C-terminally 6×His tagged Mcl-1 containing residues 171-327; made in house

OPM-2 = assay: Cell viability assay (OPM-2 10 FBS, CellTiter-Glo); assay type: cell-based, human; conditions: OPM-2 cells

T1 sequence (Q07820 whole entry): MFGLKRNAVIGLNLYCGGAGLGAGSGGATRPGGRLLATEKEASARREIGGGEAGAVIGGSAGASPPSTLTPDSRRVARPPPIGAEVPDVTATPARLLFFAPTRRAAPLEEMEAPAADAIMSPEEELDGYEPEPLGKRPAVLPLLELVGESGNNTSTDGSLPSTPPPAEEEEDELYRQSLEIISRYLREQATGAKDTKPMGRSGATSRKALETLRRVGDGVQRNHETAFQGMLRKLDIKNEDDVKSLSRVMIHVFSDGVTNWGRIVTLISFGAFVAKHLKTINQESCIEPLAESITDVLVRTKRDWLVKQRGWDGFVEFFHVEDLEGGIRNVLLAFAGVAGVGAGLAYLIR
T2 sequence (Q07820 171-327): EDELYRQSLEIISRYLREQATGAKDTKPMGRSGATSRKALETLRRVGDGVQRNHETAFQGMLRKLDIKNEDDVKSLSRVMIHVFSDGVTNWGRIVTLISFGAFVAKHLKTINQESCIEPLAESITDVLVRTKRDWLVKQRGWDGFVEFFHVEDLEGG

IC50 [1] [nM] | IC50 (recombinant human Mcl-1) [nM] | SMILES | IC50 (OPM-2; Homo sapiens, OPM-2, 16 h) [nM] | IC50 (OPM-2; 16 h) [nM]
130 | 1.75 | CC(C)O[C@H]1/C=C/C[C@H](C)[C@@H](C)S(=O)(=O)NC(=O)c2ccc3c(c2)N(C[C@@H]2CC[C@H]21)C[C@@]1(CCCc2cc(Cl)ccc21)CO3 [Example 43, (1S,3′R,6′R,7′S,8′E,11′S,12′R)-6-Chloro-11′,12′-Dimethyl-7′-(1-Methylethoxy)-3,4-Dihydro-2H,15′H-Spiro[Naphthalene-1,22′-[20]Oxa[13]Thia[1,14]Diazatetracyclo[14.7.2.0^3,6.0^19,24]Pentacos A[8,16,18,24]Tetraen]-15′-One-13′,13′-Dioxide] | 902 | 
84.3 | 0.955 | C[C@@H]1CCC[C@H](O)[C@@H]2CC[C@H]2CN2C[C@@]3(CCCc4cc(Cl)ccc43)COc3ccc(cc32)C(=O)NS(=O)(=O)[C@@H]1C (single isomer, unassigned) [Example 35] |  | 723
84.8 | 1.08 | CC(C)C[C@@H]1[C@@H](C)C/C=C/[C@H](O)[C@@H]2CC[C@H]2CN2C[C@@]3(CCCc4cc(Cl)ccc43)COc3ccc(cc32)C(=O)NS1(=O)=O (single isomer, unassigned) [Example 67] |  | 600
68.7 | 2.67 | C[C@H]1C/C=C/[C@H](O)[C@@H]2CC[C@H]2CN2C[C@@]3(CCCc4cc(Cl)ccc43)COc3ccc(cc32)C(=O)NS(=O)(=O)[C@@H]1CC1CC1 (single isomer, unassigned) [Example 61] |  | 1320
